Laboratory results from patent US5480892A, “(N-phthalimidoalkyl)piperidines” (The Du Pont Merck Pharmaceutical Company, priority 1994, dated 1996).
Read-outs that look alike come from different tables or passages of the source.

Legend:
Sigma receptor = molecular target: T1, Sigma receptor (Cavia porcellus, UniProt Q60492); assay: Sigma Receptor Binding Assay; assay type: guinea pig (male Hartley), brain membranes; conditions: 1 nM (+)-[3H]SKF 10,047, guinea pig brain membranes, pH 7.4, 45 min room temperature; read-out: Receptor Binding Affinity Sigma (Ki class)
T1 construct: Brain membranes were prepared by the method of Tam; from tissue; host or cells: guinea pig whole brain membranes

Dopamine (D-2) receptor = molecular target: T2, Dopamine (D-2) receptor (Cavia porcellus, UniProt H0VE83); assay: Dopamine Receptor Binding; assay type: guinea pig, striatum membranes
T2 construct: Membranes were prepared from guinea pig striatum; from tissue; host or cells: guinea pig striatum membranes

[1] = 0.15 nM [3H]spiperone, guinea pig striatum, pH 7.7, 15 min 37° C., read-out: Receptor Binding Affinity Dopamine (D-2) (Ki class)

T1 sequence (Q60492 whole entry): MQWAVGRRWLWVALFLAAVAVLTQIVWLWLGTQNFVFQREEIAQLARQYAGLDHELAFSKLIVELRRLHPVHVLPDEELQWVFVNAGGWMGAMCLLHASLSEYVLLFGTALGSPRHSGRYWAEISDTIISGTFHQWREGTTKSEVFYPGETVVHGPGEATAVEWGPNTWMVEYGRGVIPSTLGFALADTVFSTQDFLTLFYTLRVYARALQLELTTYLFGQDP
T2 sequence (H0VE83 1-446): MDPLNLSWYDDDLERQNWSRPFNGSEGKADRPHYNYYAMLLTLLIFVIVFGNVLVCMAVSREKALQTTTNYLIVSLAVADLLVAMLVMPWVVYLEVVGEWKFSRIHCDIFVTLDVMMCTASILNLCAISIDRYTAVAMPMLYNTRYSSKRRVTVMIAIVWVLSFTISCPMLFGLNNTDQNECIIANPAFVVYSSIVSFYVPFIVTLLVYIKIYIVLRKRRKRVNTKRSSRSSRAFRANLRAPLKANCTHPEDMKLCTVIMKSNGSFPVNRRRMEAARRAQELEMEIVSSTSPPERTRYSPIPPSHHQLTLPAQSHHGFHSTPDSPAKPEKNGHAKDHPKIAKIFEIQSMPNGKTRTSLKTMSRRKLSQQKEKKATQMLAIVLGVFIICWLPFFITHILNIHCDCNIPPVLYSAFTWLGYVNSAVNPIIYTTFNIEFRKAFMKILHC

| Compound | Ki (Sigma receptor) | Ki (Dopamine (D-2) receptor; [1]) | Ki (Dopamine (D-2) receptor) |
| --- | --- | --- | --- |
| O=C1[C@@H]2CCCC[C@H]2C(=O)N1CC1CCN(CCc2ccccc2)CC1 (relative stereo) [Example 22] | 0.031 to 0.1 µM | > 0.5 µM | – |
| O=C1[C@H]2CC=CC[C@H]2C(=O)N1CC1CCN(CCc2ccccc2)CC1 [Example 1, 2-[1-(2-Phenylethyl)-4-piperidinylmethyl]-cis-3a; 4,7,7a-tetrahydro-1H-isoindole-1,3(2H)-dione] | 0.031 to 0.1 µM | > 0.5 µM | – |
| O=C1c2ccccc2C(=O)N1CC1CCN(CCc2ccccc2)CC1 [Example 2, 2-[1-(2-Phenylethyl)-4-piperidinylmethyl]-1H-isoindole-1,3(2H)-dione] | 0.031 to 0.1 µM | > 0.5 µM | – |
| O=C1c2ccccc2C(=O)N1CCCC1CCCN(Cc2ccccc2)C1 (centres unmarked) [Example 4, 2-[3-[1-(phenylmethyl)-3-piperidinyl]propyl]-1H-isoindole-1,3(2H)-dione] | 0.001 to 0.03 µM | > 0.5 µM | – |
| O=C1C2CCCCC2C(O)N1CC1CCN(CCc2ccccc2)CC1 (stereo not drawn) [Example 5, cis-Octahydro-3-hydroxy-2-[[1-(2-phenylethyl)-4-piperidinyl]methyl]-1H-isoindol-1-one] | 0.101 to 0.5 µM | > 0.5 µM | – |
| O=C1c2ccccc2C(O)N1CC1CCN(CCc2ccccc2)CC1 (centres unmarked) [Example 7, 2,3-Dihydro-3-hydroxy-2-[[1-(2-phenylethyl]-4-piperidinyl]methyl]-1H-isoindol-1-one] | 0.101 to 0.5 µM | > 0.5 µM | – |
| CC1(O)C2CCCCC2C(=O)N1CC1CCN(CCc2ccccc2)CC1 (stereo not drawn) [Example 8, cis-Octahydro-3-hydroxy-3-methyl-2-[[1-(2-phenylethyl)4-piperidinyl]methyl]-1H-isoindol-1-one] | 0.101 to 0.5 µM | > 0.5 µM | – |
| O=C1c2cccc3cccc(c23)C(=O)N1CCC1CCN(CCc2ccccc2)CC1 [Example 9] | 0.001 to 0.03 µM | 0.101 to 0.5 µM | – |
| O=C1C2C3C=CC(C4CCC34)C2C(=O)N1CC1CCN(CCc2c[nH]c3ccccc23)CC1 (centres unmarked) [Example 10] | 0.001 to 0.03 µM | 0.031 to 0.1 µM | – |
| O=C1[C@H]2CCCC[C@H]2C(=O)N1C1CCN(Cc2ccccc2)CC1 [Example 12] | 0.001 to 0.03 µM | > 0.5 µM | – |
| O=C1[C@H]2CCCC[C@H]2C(=O)N1C1CCN(CCc2ccccc2)CC1 [Example 13] | 0.031 to 0.1 µM | > 0.5 µM | – |
| O=C1[C@H]2CCCC[C@H]2C(=O)N1CC1CCN(Cc2ccccc2)CC1 [Example 14] | 0.001 to 0.03 µM | > 0.5 µM | – |
| O=C1[C@H]2CCCC[C@H]2C(=O)N1CC1CCN(CCCc2ccccc2)CC1 [Example 16] | 0.031 to 0.1 µM | > 0.5 µM | – |
| O=C1[C@H]2CCCC[C@H]2C(=O)N1CC1CCN(Cc2cccc(C(F)(F)F)c2)CC1 [Example 18] | 0.031 to 0.1 µM | > 0.5 µM | – |
| O=C1[C@H]2CCCC[C@H]2C(=O)N1CC1CCN(CCc2ccc(O)cc2)CC1 [Example 19] | 0.101 to 0.5 µM | 0.101 to 0.5 µM | – |
| O=C1[C@H]2CCCC[C@H]2C(=O)N1CC1CCN(Cc2ccc(F)cc2)CC1 [Example 20] | 0.001 to 0.03 µM | > 0.5 µM | – |
| O=C1[C@H]2CCCC[C@H]2C(=O)N1CC1CCN(CC2CC2)CC1 [Example 21] | 0.101 to 0.5 µM | > 0.5 µM | – |
| O=C1[C@H]2CCCC[C@H]2C(=O)N1CCC1CCN(CCc2ccccc2)CC1 [Example 24] | 0.001 to 0.03 µM | > 0.5 µM | – |
| O=C1[C@H]2CCCC[C@H]2C(=O)N1CC1CCN(CCc2c[nH]c3ccccc23)CC1 [Example 32] | 0.101 to 0.5 µM | – | > 0.5 µM |

Continued, in another order:

| Ki (Sigma receptor) | Ki (Dopamine (D-2) receptor; [1]) | Compound | Ki (Dopamine (D-2) receptor) |
| --- | --- | --- | --- |
| 0.001 to 0.03 µM | > 0.5 µM | O=C1[C@H]2CCCC[C@H]2C(=O)N1CC1CCN(CCc2ccc(Cl)cc2)CC1 [Example 26] | – |
| 0.001 to 0.03 µM | > 0.5 µM | O=C1[C@H]2CCCC[C@H]2C(=O)N1CC1CCN(CCc2ccc([N+](=O)[O-])cc2)CC1 [Example 27] | – |
| 0.001 to 0.03 µM | > 0.5 µM | CN(C)c1ccc(CCN2CCC(CN3C(=O)[C@H]4CCCC[C@H]4C3=O)CC2)cc1 [Example 28] | – |
| 0.031 to 0.1 µM | > 0.5 µM | O=C1[C@H]2CCCC[C@H]2C(=O)N1CC1CCN(CCc2ccc(F)cc2)CC1 [Example 29] | – |
| 0.001 to 0.03 µM | 0.101 to 0.5 µM | O=C1[C@H]2CCCC[C@H]2C(=O)N1CC1CCN(CCc2ccc(Br)cc2)CC1 [Example 30] | – |
| 0.101 to 0.5 µM | > 0.5 µM | O=C1[C@H]2CCCC[C@H]2C(=O)N1CC1CCN(CCc2ccc(C(F)(F)F)cc2)CC1 [Example 31] | – |
| 0.001 to 0.03 µM | > 0.5 µM | O=C1[C@H]2CCCC[C@H]2C(=O)N1CCCC1CCN(CCc2ccccc2)CC1 [Example 33] | – |
| 0.031 to 0.1 µM | > 0.5 µM | O=C1c2ccccc2C(=O)N1CC1CCN(Cc2cccc(F)c2)CC1 [Example 35] | – |
| 0.001 to 0.03 µM | > 0.5 µM | O=C1c2ccccc2C(=O)N1CC1CCN(Cc2ccc(F)cc2)CC1 [Example 36] | – |
| 0.101 to 0.5 µM | > 0.5 µM | O=C1c2ccccc2C(=O)N1CC1CCN(CC2CC2)CC1 [Example 37] | – |
| 0.001 to 0.03 µM | > 0.5 µM | O=C1c2ccccc2C(=O)N1CCC1CCN(Cc2ccccc2)CC1 [Example 38] | – |
| 0.001 to 0.03 µM | > 0.5 µM | O=C1c2ccccc2C(=O)N1CCC1CCN(Cc2cccc(F)c2)CC1 [Example 40] | – |
| 0.001 to 0.03 µM | > 0.5 µM | O=C1c2ccccc2C(=O)N1CCC1CCN(Cc2ccc(F)cc2)CC1 [Example 41] | – |
| 0.001 to 0.03 µM | > 0.5 µM | O=C1c2ccccc2C(=O)N1CCC1CCN(CC2CC2)CC1 [Example 42] | – |
| 0.001 to 0.03 µM | > 0.5 µM | O=C1c2ccccc2C(=O)N1CCCC1CCN(Cc2ccccc2)CC1 [Example 43] | – |
| 0.001 to 0.03 µM | > 0.5 µM | O=C1c2ccccc2C(=O)N1CCCC1CCN(CCc2ccccc2)CC1 [Example 44] | – |
| 0.001 to 0.03 µM | > 0.5 µM | O=C1c2ccccc2C(=O)N1CC1CCCN(Cc2ccccc2)C1 (centres unmarked) [Example 47] | – |
| 0.001 to 0.03 µM | > 0.5 µM | O=C1c2ccccc2C(=O)N1CC1CCCN(CCc2ccccc2)C1 (centres unmarked) [Example 48] | – |
| 0.001 to 0.03 µM | > 0.5 µM | O=C1c2ccccc2C(=O)N1CCCC1CCCN(CCc2ccccc2)C1 (centres unmarked) [Example 49] | – |
| 0.031 to 0.1 µM | > 0.5 µM | O=C1c2ccccc2C(=O)N1CCC1CCCCN1Cc1ccccc1 (centres unmarked) [Example 50] | – |
| 0.001 to 0.03 µM | > 0.5 µM | O=C1C2CC=CCC2C(=O)N1CC1CCN(CCc2ccccc2)CC1 (centres unmarked) [Example 52] | – |
| 0.031 to 0.1 µM | > 0.5 µM | O=C1C2C3CCC(C3)C2CN1CC1CCN(CCc2ccccc2)CC1 (centres unmarked) [Example 54] | – |
| 0.031 to 0.1 µM | > 0.5 µM | O=C1C2C3C=CC(C3)C2C(=O)N1CC1CCN(CCc2ccccc2)CC1 (centres unmarked) [Example 55] | – |
| 0.001 to 0.03 µM | > 0.5 µM | O=C1C2=C(CCCC2)C(=O)N1CC1CCN(CCc2ccccc2)CC1 [Example 56] | – |
| 0.001 to 0.03 µM | > 0.5 µM | O=C1C2C3CC(c4ccccc43)C2C(=O)N1CC1CCN(CCc2ccccc2)CC1 (centres unmarked) [Example 57] | – |
| 0.001 to 0.03 µM | > 0.5 µM | O=C1C2C3CCC(O3)C2C(=O)N1CC1CCN(CCc2ccccc2)CC1 (centres unmarked) [Example 58] | – |
| 0.031 to 0.1 µM | > 0.5 µM | O=C1C2C3C=CC(C4CCC34)C2C(=O)N1CC1CCN(CCc2ccccc2)CC1 (centres unmarked) [Example 59] | – |
| 0.001 to 0.03 µM | > 0.5 µM | O=C1C2C3CCCC(CC3)C2C(=O)N1CC1CCN(CCc2ccccc2)CC1 (centres unmarked) [Example 61] | – |
| 0.031 to 0.1 µM | – | O=C1C2C3C=CC(C4CCC34)C2C(=O)N1CC1CCN(CCc2ccccc2)CC1 (centres unmarked) [Example 113] | – |
